# Test results taken from the OPERA property sets (Mansouri et al. 2018).
row,SMILES,logP
1,CC1=Nc2c([N+](=O)[O-])cc(Cl)cc2S(=O)(=O)N1,0.85
2,CN(C)C(=O)COc1ccccc1,0.8
3,CCCC12CC3CC(CC(N)(C3)C1)C2,3.76
4,CCCNCC(=O)NC(=O)C=[N+]=[N-],-0.24
5,[O-][n+]1ccc(Cl)c2ccccc21,1.08
6,CCC(=O)N(C)c1ccc(S(=O)(=O)N(C)C)cc1,0.71
7,CCCOn1c(=O)[nH]c(CCC)c(Br)c1=O,1.73
8,COc1c(O)cc(Cc2cnc(N)nc2N)cc1O,-0.04
9,Nc1nc(N)nc(-c2cccc(Cl)c2)n1,2.33
10,O=C(O)COc1cc(F)cc(I)c1,2.42
11,CC(=O)C(C#N)=NNc1ccc(Cl)cc1C,4.28
12,COc1cccc(C=C(C(C)=O)C(C)=O)c1,1.79
13,CCC[n+]1cccc2ccccc21.[Br-],-2.52
14,CCC(C)C(NC(C)=O)C(=O)NC (stereo not given),0.14
15,O=NN1CCCN(N=O)CC1,-0.51
16,CCOP(=O)(OCC)Oc1ccc(SC)cc1,2.79
17,O=[N+]([O-])C=Cc1ccccc1[N+](=O)[O-],1.8
18,COc1cc(-n2nc(C)cc2OC)ncn1,1.53
19,Cc1cc(C)cc(NC(=O)N(C)C)c1,1.9
20,O=C(c1ccccc1)c1ccc(N=C=S)cc1,4.88

row,SMILES,logP
1,COC12C(COC(N)=O)C3=C(C(=O)C(C)=C(Nc4ncc(C)s4)C3=O)N1CC1NC12 (stereo not given),1.16
2,CCOc1ccc(OC(C)=O)cc1,1.95
3,Cc1cc(=O)[nH]n1-c1ccncn1,1.4
4,O=NN(CCF)C(=O)NC1CCSCC1,1.43
5,NNC(=O)c1ccc(Br)cc1,1.28
6,CC1=Nc2c(C)cccc2S(=O)(=O)N1,0.52
7,O=C1CCC(=O)N1c1ccc(C(F)(F)F)cc1,1.45
8,O=C(NC(CO)C(O)c1ccccc1)C(Cl)Cl (stereo not given),0.94
9,CSCN1C(=O)CN=C(c2ccccc2)c2cc(Cl)ccc21,3.32
10,CON(C)C(=O)Nc1ccc(OCCc2ccccc2)cc1,4.5
11,CCC(C)(Oc1ccc(Cl)cc1)C(=O)O (stereo not given),2.9
12,Cc1ccccc1NC(=O)CN1CCCCC1,2.26
13,CNc1cc(Cc2cnc(N)nc2N)cc(N(C)C(C)=O)c1C,0.53
14,CCC(C)c1ccccc1OC(=O)N(C)C (stereo not given),3.31
15,O=C1CN=C(c2ccccc2F)c2cc([N+](=O)[O-])ccc2N1,2.15
16,COc1ccc(CC(C)N)c(OC)c1 (stereo not given),1.75
17,Clc1cccc(Cl)c1-c1ccccc1,4.98
18,CN(N=O)C(=O)Oc1cccc2ccccc12,2.85
19,CC1CNC(=Nc2ncc([N+](=O)[O-])s2)N1 (stereo not given),1.82
20,COc1ccccc1NC(=O)C(Cl)Cl,2.41

row,SMILES,logP
1,CN(C)C(=O)Cc1cccs1,0.65
2,CCCCCCCCCCCC[n+]1ccccc1C.[I-],1.32
3,NNC(=O)c1cccc(N)c1,-0.86
4,C[N+](C)(C)Cc1cccc(N)c1.[Br-],-2.5
5,Fc1cccc(Cl)c1N=C1NCCN1,1.45
6,CCCC(C)C1(CC)C(=O)NC(=O)N(C)C1=O (stereo not given),2.45
7,COc1cc(C)c(Cc2cnc(N)nc2N)cc1OCc1ccccc1,2.69
8,CN(SN(C)C(=O)OC(C)(C)C)C(=O)Oc1cccc2c1OC(C)(C)C2,4.3
9,O=[N+]([O-])C=Cc1cc([N+](=O)[O-])ccc1Cl,2.23
10,Oc1ccc(C(c2ccc(O)cc2)c2ccccn2)cc1,2.84
11,CCCCCCCCCC[n+]1cc(C)cc(C)c1.[I-],0.76
12,CN(C)C(=O)c1ccsc1,0.55
13,O=C1CN=C(c2ccccc2F)c2cc(Cl)ccc2N1,2.7
14,Cc1ccnc2c(O)ccc(C)c12,2.71
15,O=[N+]([O-])C=Cc1ccc(O)cc1,2.12
16,Cc1nnc(N)o1,-0.92
17,Cc1cccc(C)c1C(=N)c1ccccc1,3.53
18,COC12C(COC(N)=O)C3=C(C(=O)C(C)=C(N)C3=O)N1CC1C2N1C(=O)OCc1ccccc1 (stereo not given),1.34
19,CC1(C)SC2C(NC(=O)Cc3ccc(Cl)cc3Cl)C(=O)N2C1C(=O)O (stereo not given),3.3
20,Cc1cnc2ccccn2c1=O,0.77
